Patent US7521538B2, “Crystal structure of the ternary complex of 14-3-3/Fusicoccin/PMA and methods for designing new herbicides” (Max-Planck-Gesellschaft zur Foerderung der Wissenschaften …, priority 2003, dated 2009)
Where a chain is given by its changes, count along the chain named. Like-named read-outs stand apart in the source and are kept apart here. Non-standard residues stand in square brackets, D forms with d. Residues, ends and D or L forms follow the SMILES beside them. pT = C[C@@H](OP(=O)(O)O)[C@H](N)C(=O)O

Experiments:
14-3-3c = target: T1, 14-3-3c (Nicotiana tabacum, UniProt P93343); test: Isothermal titration calorimetry, ligand binding to 14-3-3c alone; conditions: for binding of the toxin by itself to 14-3-3: unliganded 14-3-3, no peptide
T1 construct: Tobacco 14-3-3c (Gene bank AAC49892, amino acids 1-260 with an N-terminal His-tag); His-tag (N); made in house; host or cells: E. coli
T1 sequence (P93343 1-260): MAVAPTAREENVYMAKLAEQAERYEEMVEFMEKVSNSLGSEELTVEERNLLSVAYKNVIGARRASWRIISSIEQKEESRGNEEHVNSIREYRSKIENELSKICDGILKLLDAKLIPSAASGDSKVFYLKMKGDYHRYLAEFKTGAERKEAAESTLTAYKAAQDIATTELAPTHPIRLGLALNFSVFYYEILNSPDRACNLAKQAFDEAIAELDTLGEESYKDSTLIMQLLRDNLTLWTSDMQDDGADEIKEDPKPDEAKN
Protocol: (§1) In order to obtain more quantitative data with respect to the phosphorylated pentapeptide used in the structural analysis, thermodynamic constants were determined by means of isothermal titration calorimetry (ITC, 16).
(§2) Binding of ligands to 14-3-3c was measured with a MCS isothermal titration calorimeter (MicroCal Inc., Northampton). Ligands (fusicoccin 0.4 mM; phosphopbeptides 0.5 mM) were titrated in 8 to 20 μl steps by injection into solutions containing 14-3-3c (0.05 mM) alone or 14-3-3c saturated with one of the ligands in 25 mM HEPES buffer pH 6.5, 10 mM MgCl2, 5 mM CaCl2, 5 mM DTE at 35° C. Binding isotherms were fitted using a single binding site model and used to calculate the binding enthalpy (ΔH) and association constant (Ka) of the binding reaction. Dissociation constants (KD=1/Ka), Gibbs free energy changes (ΔG=−RTInKa) and entropy changes (TΔS=ΔH−ΔG) were calculated from ΔH and Ka. For the binding of peptide to a FC/14-3-3c complex, we also used non-saturating conditions of FC and observed two binding events which were fitted independently to K1 and K4. All measurements were repeated at least three times.

[1] = target: T2, 14-3-3-fusicoccin complex (Nicotiana tabacum, UniProt P93343); test: Isothermal titration calorimetry, peptide binding to FC/14-3-3c complex; conditions: for increase of the binding affinity of the peptide by fusicoccin: complete binding cycle, ITC
T2 construct: Tobacco 14-3-3c (Gene bank AAC49892, amino acids 1-260 with an N-terminal His-tag); His-tag (N); made in house; host or cells: E. coli
T2 sequence (P93343 1-260): T1 sequence (P93343 1-260)
Protocol: as §1, §2

[2] = target: T3, binary 14-3-3/peptide complex (Nicotiana tabacum, UniProt P93343); test: Isothermal titration calorimetry, FC titrated to 14-3-3c saturated with peptide; assay type: binding; conditions: ITC, 35° C., pH 6.5
T3 construct: Tobacco 14-3-3c (Gene bank AAC49892, amino acids 1-260 with an N-terminal His-tag); His-tag (N); made in house; host or cells: E. coli (14-3-3c); the phosphopeptide was synthesized by Biosyntan (Berlin)
T3 sequence (P93343 1-260): T1 sequence (P93343 1-260)
Protocol: as §1, §2

[3] = target: T4, 14-3-3c preloaded with Gln-Ser-Tyr-pThr-Val-Pro (Nicotiana tabacum, UniProt P93343); test: ITC, FC binding to 14-3-3c preloaded with C-terminally extended phosphopeptide; conditions: peptide with added C-terminal Pro, FIG. 3b upper panel
T4 construct: Tobacco 14-3-3c (Gene bank AAC49892, amino acids 1-260 with an N-terminal His-tag); His-tag (N); made in house; host or cells: E. coli (14-3-3c); the phosphopeptide was synthesized by Biosyntan (Berlin)
T4 sequence (P93343 1-260): T1 sequence (P93343 1-260)
Protocol: as §2
(§3) PMA binding to-14-3-3 is unique in that the penultimate C-terminal residue is the phosphorylated threonine (YpTV-COOH). […] Taken together; this explains why there is no effect of FC on any other known 14-3-3-ligand interaction. To date, all plant proteins characterized as interacting directly with 14-3-3 homologs contain the consensus binding motifs with the notable exception of the plasma membrane H^+-ATPase. […]

[4] = target: T5, 14-3-3c with phosphopeptide after removal of Val (Nicotiana tabacum, UniProt P93343); test: ITC, FC binding to 14-3-3c with phosphopeptide lacking the C-terminal Val; conditions: peptide with C-terminal Val deleted, FIG. 3b lower panel
T5 construct: Tobacco 14-3-3c (Gene bank AAC49892, amino acids 1-260 with an N-terminal His-tag); His-tag (N); made in house; host or cells: E. coli (14-3-3c); the phosphopeptide was synthesized by Biosyntan (Berlin)
Protocol: as §2, §3

[5] = Solubility of FC in aqueous solutions; assay type: physicochemical
[6] = target: T6, wild type 14-3-3 / PMA-GST fusion construct (66 C-terminal residues of PMA) (Homo sapiens, UniProt P63104); test: Far-western-blot overlay, wild type 14-3-3; assay type: binding; conditions: 0, 500 nM and 1000 nM fusicoccin
T6 construct: made in house
T6 sequence (P63104 1-245): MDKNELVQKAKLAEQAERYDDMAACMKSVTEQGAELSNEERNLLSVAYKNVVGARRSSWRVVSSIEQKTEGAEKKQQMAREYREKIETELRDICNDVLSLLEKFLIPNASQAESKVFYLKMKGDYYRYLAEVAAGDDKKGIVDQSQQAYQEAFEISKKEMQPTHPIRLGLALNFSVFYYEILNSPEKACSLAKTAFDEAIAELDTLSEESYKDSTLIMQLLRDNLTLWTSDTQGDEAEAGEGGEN
Protocol: (§4) In order to study the functional relevance of selected amino acids within the above-described binding pocket, residues the following point mutants were analysed in respect FC binding: (a) N49Q, (b) D222E, (c) F126E and (d) I175E in the homologous sequence of human 14-3-3z. The mutant proteins were expressed, purified and FC binding were tested in an in vitro assay in the presence of the 66 C-terminal residues of a PMA-GST fusion construct.
(§5) For the detection of FC binding a far-western-blot (FIG. 4) was performed. In this in vitro assay, the PMA-GST fusion construct, containing the 66 C-terminal residues of PMA, was immobilised on a nitrocellulose membrane via electroblotting of SDS-PAGE-separated proteins. The interacting protein, a his-tagged 14-3-3 construct was allowed to react with the GST-fusion protein in an overlay-solution. The interaction of these two proteins was mediated by fusicoccin. […] The actual binding of the his-tagged 14-3-3 protein was visualized after washing the membrane by immunodetecton with an anti-His-antibody, which was employed as primary antibody.

[7] = target: T7, 14-3-3z N49Q / PMA-GST fusion construct (Homo sapiens, UniProt P63104, N42Q); test: Far-western-blot overlay, 14-3-3 N49Q; assay type: binding; conditions: mutation N49Q
T7 construct: made in house
T7 sequence (P63104 1-245 N42Q): T6 sequence (P63104 1-245) with N42Q
Protocol: as §4, §5

[8] = target: T8, 14-3-3z D222E / PMA-GST fusion construct (Homo sapiens, UniProt P63104, D213E); test: Far-western-blot overlay, 14-3-3 D222E; assay type: binding; conditions: mutation D222E
T8 construct: made in house
T8 sequence (P63104 1-245 D213E): T6 sequence (P63104 1-245) with D213E
Protocol: as §4, §5

[9] = target: T9, 14-3-3z F126E / PMA-GST fusion construct (Homo sapiens, UniProt P63104, F117E); test: Far-western-blot overlay, 14-3-3 F126E; assay type: binding; conditions: mutation F126E
T9 construct: made in house
T9 sequence (P63104 1-245 F117E): T6 sequence (P63104 1-245) with F117E
Protocol: as §4, §5

[10] = target: T10, 14-3-3z I175E / PMA-GST fusion construct (Homo sapiens, UniProt P63104, I166E); test: Far-western-blot overlay, 14-3-3 I175E; assay type: binding; conditions: mutation I175E
T10 construct: made in house
T10 sequence (P63104 1-245 I166E): T6 sequence (P63104 1-245) with I166E
Protocol: as §4, §5

[11] = target: T11, 14-3-3z N49Q / GST-PMA2-CT66 (Homo sapiens, UniProt P63104, N42Q); test: GST-pulldown, 14-3-3 N49Q; assay type: binding; conditions: pull-down, mutation N49Q
T11 construct: made in house
T11 sequence (P63104 1-245 N42Q): T6 sequence (P63104 1-245) with N42Q
Protocol: as §4
(§6) Alternatively, a second in-vitro method was used to screen for fusicoccin binding. In this pull-down assay (FIG. 5), the GST-PMA fusion protein is immobilized on GSH-sepharose-beads and the his-tagged 14-3-3 protein will bind in the presence of fusioccin to the GST-fusion protein and can subsequently be found in the sepharose-fraction after washing and centrifugation of the beads. The detection again takes place via SDS-PAGE and Western-Blotting with subsequent immunodetection.

[12] = target: T12, 14-3-3z D222E / GST-PMA2-CT66 (Homo sapiens, UniProt P63104, D213E); test: GST-pulldown, 14-3-3 D222E; assay type: binding; conditions: pull-down, mutation D222E
T12 construct: made in house
T12 sequence (P63104 1-245 D213E): T6 sequence (P63104 1-245) with D213E
Protocol: as §4, §6

[13] = target: T13, 14-3-3z F126E / GST-PMA2-CT66 (Homo sapiens, UniProt P63104, F117E); test: GST-pulldown, 14-3-3 F126E; assay type: binding; conditions: pull-down, mutation F126E
T13 construct: made in house
T13 sequence (P63104 1-245 F117E): T6 sequence (P63104 1-245) with F117E
Protocol: as §4, §6

[14] = target: T14, 14-3-3z I175E / GST-PMA2-CT66 (Homo sapiens, UniProt P63104, I166E); test: GST-pulldown, 14-3-3 I175E; assay type: binding; conditions: pull-down, mutation I175E
T14 construct: made in house
T14 sequence (P63104 1-245 I166E): T6 sequence (P63104 1-245) with I166E
Protocol: as §4, §6

14-3-3 = target: T15, 14-3-3 (Nicotiana tabacum, UniProt P93343); test: Binding of non-phosphorylated peptide to 14-3-3 (not shown, method not stated)
T15 sequence (P93343 1-260): T1 sequence (P93343 1-260)
Excerpt: The phosphopeptide occupies the central binding groove of 14-3-3c in an extended conformation. The phosphate moiety of the phosphothreonine forms electrostatic interactions with a positively charged patch formed by residues Lys56, Arg63, and Arg136 and a H-bond to Tyr137 (FIG. 1b). […] Additionally, there are a number of H-bonds (cut-off limit 3.4 Å) between the peptide, mostly from the main-chain, and conserved protein side-chains. The peptide's C-terminal barboxylate is mostly contacted by basic residues and the side chains of the Val and Tyr residue flanking the phosphothreonine form van der Waals contacts to the protein (FIG. 1b). The structure confirms the notion that the C-terminal YTV-motif is highly conserved in plant P-type H^+-ATPases.

CC(C)[C@H](NC(=O)[C@@H](NC(=O)[C@H](Cc1ccc(O)cc1)NC(=O)[C@H](CO)NC(=O)[C@@H](N)CCC(N)=O)[C@@H](C)OP(=O)(O)O)C(=O)O [peptide, Gln-Ser-Tyr-pThr-Val] (H-QSY[pT]V-OH; N-terminus assumed)
Kd (14-3-3c): 2.5 µM | enthalpy (ΔH) of peptide binding (14-3-3c; unliganded 14-3-3): -10 kcal/mol | −TAS of peptide binding (14-3-3c; unliganded 14-3-3): 1.7 kcal/mol | enthalpy (ΔH) of peptide binding ([1]; 14-3-3-FC complex): -11.8 kcal/mol | −TAS of peptide binding ([1]; 14-3-3-FC complex): 0.4 kcal/mol | binding between 14-3-3 and the peptide ([1]; after saturation of the binding site with FC, FIG. 3A): much tighter

C=CC(C)(C)OC[C@H]1O[C@H](O[C@@H]2C3=C([C@H](C)COC(C)=O)C[C@H](O)[C@]3(C)/C=C3/[C@@H](COC)CC[C@H]3[C@@H](C)[C@H]2O)[C@H](O)[C@@H](OC(C)=O)[C@@H]1O [Fusicoccin]
Kd (14-3-3c; calculated from K4 and K1×K2=K3×K4, read-out: affinity of FC to 14-3-3, more reliable value): 66 µM | Kd (14-3-3c; direct ITC determination, somewhat unreliable, read-out: affinity of FC to 14-3-3): ~50 µM | binding of the toxin by itself to 14-3-3 (14-3-3c; listed as FC): weak binding | binding of the toxin by itself to 14-3-3 (14-3-3c; listed as toxin): binds only weakly | Kd [2]: 0.7 µM | increase of the binding affinity of the peptide by fusicoccin [1]: 93 fold | increase of the binding affinity of the peptide by fusicoccin ([1]; listed as toxin): more than 90 fold | FC binding [3]: drastically weakens the binding | FC binding ([3]; listed as FC): severely impaired | FC binding [4]: drastically weakens the binding | FC binding ([4]; listed as FC): significant lower binding affinity | solubility in aqueous solutions [5]: insolubility | fusicoccin mediated interaction of 14-3-3 with PMA-GST [6]: interaction was only observed in the presence of fusicoccin | fusicoccin mediated PMA binding [7]: strong reduction | fusicoccin mediated PMA binding [8]: strong reduction | fusicoccin mediated PMA binding [9]: complete inhibition of binding | fusicoccin mediated PMA binding [10]: complete inhibition of binding | fusicoccin mediated PMA binding [11]: strong reduction | fusicoccin mediated PMA binding [12]: strong reduction | fusicoccin mediated PMA binding [13]: complete inhibition of binding | fusicoccin mediated PMA binding [14]: complete inhibition of binding

Gln-Ser-Tyr-Thr-Val (QSYTV; printed: Gln-Ser-Tyr-Thr-Val) [non-phosphorylated version of the PMA2 C-terminal pentapeptide]
binding to 14-3-3 (14-3-3): binding could not be detected
